Laboratory results as given in article PMC12021085 (2025).

Columns and labels:
[1] = tested on: NOP56-G4 (DNA, G4) GGGCCTGGGCCTGGGCCTGGG; test: solution NMR structure; conditions: Na+ (1 mM sodium phosphate); pH 7, 25 °C; 0.5 mM DNA, 1.5 mM PDS; stacks on terminal G-tetrad
[2] = tested on: NOP56-G4 template (with annealed Cy5 primer) (DNA, G4) GGGCCTGGGCCTGGGCCTGGGTTTTTTTATAGTGAGTCGTATTA/TAATACGACTCACTATA; test: DNA polymerase stop assay (Klenow fragment); conditions: K+ (100 mM KCl), Na+ (50 mM NaCl), Mg2+ (10 mM MgCl2); 10 mM Tris-HCl pH 7.9, 1 mM DTT, 37 °C; PDS concentration-dependent stalling
[3] = tested on: NOP56-G4 (DNA, G4) GGGCCTGGGCCTGGGCCTGGG; test: CD melting at 295 nm; conditions: Na+ (1 mM sodium phosphate); pH 7; 3 equivalents PDS; Tm 44.8 to 58.8 °C
[4] = tested on: NOP56-G4 (DNA, G4) GGGCCTGGGCCTGGGCCTGGG; test: CD spectroscopy; conditions: K+ (100 mM KCl), Na+ (1 mM sodium phosphate); pH 7, 25 °C; 20 µM DNA, 20 µM PDS; antiparallel G4 features
[5] = tested on: NOP56-G4 (DNA, G4) GGGCCTGGGCCTGGGCCTGGG; test: ITC; conditions: Na+ (1 mM sodium phosphate); pH 7.0, room temperature; 200 µM PDS titrated into 10 µM DNA

binding [1]: yes | binding [2]: yes | Tm increase [3]: ~ 14 °C | binding [4]: yes | KD [5]: 640 ± 20 nM
Compound: NCCOc1cc(C(=O)Nc2cc(OCCN)c3ccccc3n2)nc(C(=O)Nc2cc(OCCN)c3ccccc3n2)c1
